Experimental data taken from US20250297152A1, “FLUORINATED SUBSTITUTED OLEFIN REFRIGERANTS AND METHODS OF COOLING ELECTRONICS” (Honeywell International Inc., priority 2024, published 2025).

Assays:
[1] = type: physicochemical; conditions: for BP: Table E1
Protocol: (§1) The boiling point (“BP”) and dielectric constant (“Dk”) of trans- and cis-secBuFO and trans- and cis-tBuFO were determined and the results are reported below in Table E1. The dielectric property of each of trans- and cis-secBuFO and trans- and cis-tBuFO was determined using the Agilent 85070 Dielectric Probe. All measurements were made at ambient pressure and room temperature (approximately 23° C.). Prior to making measurements, the system was calibrated from 1 GHz to 20 GHz with an open circuit, a short circuit, and DI water (@22.4° C.) standard. The result of the calibration is shown in the Table E1 below for DI H2O, and is consistent with DI water at 22.4° C. The accuracy of the probe is given as: Dielectric constant, er′=er′+/−0.05|er*| with er″=er″+/−0.05|er*| and (loss=er″/er′).

[2] = Dielectric constant (Agilent 85070 Dielectric Probe; ASTM D150-11); type: physicochemical; conditions: for Dielectric Constant (20 GHz): Table 3, values understood as 'about'; for Calculated Dk at 20 GHz: Table E1, ambient pressure, room temperature (approximately 23° C.)
Protocol: “Dielectric Constant” means the dielectric constant as measured in accordance with ASTM D150-11 at room temperature at 20 giga hertz (GHz).
as §1

[3] = Toxicological screening study: in vivo acute oral toxicity and 4-hour acute inhalation toxicity; conditions: acute oral 2,000 mg/kg/day; 4-hour acute inhalation at 18,375 ppm
Protocol: “Acceptable toxicity” means a fluid that has toxicity within acceptable limits. This is experimentally determined by a toxicological screening study to assess in vivo acute oral toxicity at a dosage of 2,000 mg/kg/day and 4-hour acute inhalation toxicity at a concentration of about 20,000 ppm.
A fluid including the trans isomer of the SecBuFO refrigerant was subjected experimentally a toxicological screening study to assess in vivo acute oral toxicity at a dosage of 2,000 mg/kg/day and 4-hour acute inhalation toxicity at a concentration of 18,375 ppm.

Row | Structure (SMILES) | Boiling point [1] | BP [1] | Dielectric Constant (20 GHz) [2] | Calculated Dk at 20 GHz [2] | toxicology screening study outcome [3]
1 | F/C=C/C(F)(C(F)(F)F)C(F)(F)C(F)(F)F (stereo not drawn) [trans-secBuFO, trans-1,3,4,4,5,5,5-heptafluoro-3-(trifluoromethyl)pent-1-ene] | 55.5-55.9 °C | 55.5-55.9 °C | 2.11 | 2.11 | passed
2 | F/C=C\C(C(F)(F)F)(C(F)(F)F)C(F)(F)F [cis-tBuFO, cis-1,4,4,4-tetrafluoro-3,3-bis(trifluoromethyl)but-1-ene] | 76.19 °C | 76.19 °C | 6.51 | 6.51 | –
3 | F/C=C\C(F)(C(F)(F)F)C(F)(F)C(F)(F)F (stereo not drawn) [cis-secBuFO, cis-1,3,4,4,5,5,5-heptafluoro-3-(trifluoromethyl)pent-1-ene] | 79.27 °C | 79.27 °C | 6.48 | 6.48 | –
4 | F/C=C/C(C(F)(F)F)(C(F)(F)F)C(F)(F)F [trans-tBuFO, trans-1,4,4,4-tetrafluoro-3,3-bis(trifluoromethyl)but-1-ene] | 57.9 °C | 57.9 °C | 2.15 | 2.15 | –
